Experimental data taken from patent US20100249093A1, “Substituted Heteroarylpiperidine Derivatives As Melanocortin-4 Receptor Modulators” (SANTHERA PHARMACEUTICALS (SCHWEIZ) AG, priority 2007, published 2010).

What was measured:
[1] = target: T1, human melanocortin-4 receptor (MC-4R) (Homo sapiens, UniProt P32245); assay: Membrane binding assay: competition with fluorescence labeled NDP-alpha-MSH, fluorescence polarization; details: HEK293 cell membrane preparations expressing human MC-4R, read-out: hMC-4R binding assay IC50
T1 construct: expressed in transfected cells; host or cells: HEK293
T1 sequence (P32245 whole entry): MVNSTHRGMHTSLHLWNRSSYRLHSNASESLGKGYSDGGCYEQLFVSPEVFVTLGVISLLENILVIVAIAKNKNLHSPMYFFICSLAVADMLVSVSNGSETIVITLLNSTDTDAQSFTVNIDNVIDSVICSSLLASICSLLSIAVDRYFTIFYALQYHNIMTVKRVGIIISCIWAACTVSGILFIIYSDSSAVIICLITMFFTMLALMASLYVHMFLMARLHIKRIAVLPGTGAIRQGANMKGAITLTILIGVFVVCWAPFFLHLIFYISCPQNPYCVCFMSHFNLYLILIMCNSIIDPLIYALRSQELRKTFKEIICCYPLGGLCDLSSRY

[2] = target: T1, human melanocortin-4 receptor (MC-4R); assay: Functional assay: agonistic activity, cAMP production in membrane preparations compared with NDP-alpha-MSH, fluorescence polarization; type: biochemical; details: for Emax: cAMP produced compared to stimulation with NDP-alpha-MSH, read-out: % activation functional assay; for EC50: cAMP production, membrane preparations from HEK293 cells expressing human MC-4R, read-out: hMC-4R functional assay EC50

Row | IC50 [1] | Emax [2] | EC50 [2] | Compound
1 | 100 to 1000 nM | 0% |  | CN1CC[C@@H](Oc2cccnc2C2CCN(C(=O)[C@@H](Cc3ccc(Cl)cc3Cl)NC(=O)N3CCCC3)CC2)C1 [Example 43]
2 | 100 to 1000 nM | -4% |  | CN1CCC[C@H]1COc1cccnc1C1CCN(C(=O)[C@@H](Cc2ccc(Cl)cc2Cl)NC(=O)N2CCCC2)CC1 [Example 44]
3 | ≤ 100 nM | -27% | 100 to 1000 nM | CN1CCC[C@@H]1COc1cccnc1C1CCN(C(=O)[C@@H](Cc2ccc(Cl)cc2Cl)NC(=O)N2CCCC2)CC1 [Example 45]
4 | > 1000 nM | -13% |  | COC[C@H](CN(C)C)Oc1cccnc1C1CCN(C(=O)[C@@H](Cc2ccc(Cl)cc2Cl)NC(=O)N2CCCC2)CC1 [Example 46]
5 | ≤ 100 nM | -36% | 100 to 1000 nM | COC[C@@H](CN(C)C)Oc1cccnc1C1CCN(C(=O)[C@@H](Cc2ccc(Cl)cc2Cl)NC(=O)N2CCCC2)CC1 [Example 47]
6 | ≤ 100 nM | 0% |  | CN1CCOC[C@H](Oc2cccnc2C2CCN(C(=O)[C@@H](Cc3ccc(Cl)cc3Cl)NC(=O)N3CCCC3)CC2)C1 [Example 48]
7 | 100 to 1000 nM | -3% |  | CN1CCO[C@H](COc2cccnc2C2CCN(C(=O)[C@@H](Cc3ccc(Cl)cc3Cl)NC(=O)N3CCCC3)CC2)C1 [Example 49]
8 | ≤ 100 nM | 0% |  | CC[C@H]1CN(C)CCN1Cc1cccnc1C1CCN(C(=O)[C@@H](Cc2ccc(Cl)cc2Cl)NC(=O)N2CCCC2)CC1 [Example 50]
9 | 100 to 1000 nM | 0% |  | CN1CC[C@H](COc2cccnc2C2CCN(C(=O)[C@@H](Cc3ccc(Cl)cc3Cl)NC(=O)N3CCCC3)CC2)C1 [Example 51]
10 | 100 to 1000 nM | 4% |  | CN1CCOC[C@@H](Oc2cccnc2C2CCN(C(=O)[C@@H](Cc3ccc(Cl)cc3Cl)NC(=O)N3CCCC3)CC2)C1 [Example 52]
11 | > 1000 nM | 1% |  | CN1CCO[C@@H](COc2cccnc2C2CCN(C(=O)[C@@H](Cc3ccc(Cl)cc3Cl)NC(=O)N3CCCC3)CC2)C1 [Example 53]
12 | 100 to 1000 nM | 10% |  | CN1CC[C@@H](COc2cccnc2C2CCN(C(=O)[C@@H](Cc3ccc(Cl)cc3Cl)NC(=O)N3CCCC3)CC2)C1 [Example 54]
13 | 100 to 1000 nM | 2% |  | CN1CCOC[C@@H]1COc1cccnc1C1CCN(C(=O)[C@@H](Cc2ccc(Cl)cc2Cl)NC(=O)N2CCCC2)CC1 [Example 55]
14 | ≤ 100 nM | -5% |  | CN1CCN(C)CC(Oc2cccnc2C2CCN(C(=O)[C@@H](Cc3ccc(Cl)cc3Cl)NC(=O)N3CCCC3)CC2)C1 [Example 56]
15 | ≤ 100 nM | 5% |  | CN(C)[C@@H]1CCC[C@@H]1Oc1cccnc1C1CCN(C(=O)[C@@H](Cc2ccc(Cl)cc2Cl)NC(=O)N2CCCC2)CC1 [Example 57]
16 | 100 to 1000 nM | 4% |  | CN(C)C[C@@H](Oc1cccnc1C1CCN(C(=O)[C@@H](Cc2ccc(Cl)cc2Cl)NC(=O)N2CCCC2)CC1)C(F)(F)F [Example 58]
17 | ≤ 100 nM | -1% |  | CN1CCN(Cc2cc(F)cnc2C2CCN(C(=O)[C@@H](Cc3ccc(Cl)cc3Cl)NC(=O)N3CCCC3)CC2)CC1 [Example 59]
18 | ≤ 100 nM | -12% |  | CC[C@H](COc1cc(F)cnc1C1CCN(C(=O)[C@@H](Cc2ccc(Cl)cc2Cl)NC(=O)N2CCCC2)CC1)N(C)C [Example 60]
19 | ≤ 100 nM | 1% |  | CC[C@@H](CN(C)C)Oc1cc(F)cnc1C1CCN(C(=O)[C@@H](Cc2ccc(Cl)cc2Cl)NC(=O)N2CCCC2)CC1 [Example 61]
20 | ≤ 100 nM | -10% |  | C[C@@H](CCN(C)C)Oc1cccnc1C1CCN(C(=O)[C@@H](Cc2ccc(Cl)cc2Cl)NC(=O)N2CCCC2)CC1 [Example 62]

Row | IC50 [1] | Emax [2] | EC50 [2] | Compound
21 | ≤ 100 nM | 0% |  | CC[C@@H](CN1CCCC1)Oc1nccnc1C1CCN(C(=O)[C@@H](Cc2ccc(Cl)cc2Cl)NC(=O)N2CCCC2)CC1 [Example 63]
22 | ≤ 100 nM | 13% |  | CC[C@H](COc1nc(C)ncc1C1CCN(C(=O)[C@@H](Cc2ccc(Cl)cc2Cl)NC(=O)N2CCCC2)CC1)N(C)C [Example 64]
23 | ≤ 100 nM | 0% |  | Cc1ccc(C2CCN(C(=O)[C@@H](Cc3ccc(Cl)cc3F)NC(=O)N3CCCC3)CC2)c(N2CCN(C)CC2)n1 [Example 65]
24 | 100 to 1000 nM | 0% |  | Cc1ccc(C2CCN(C(=O)[C@@H](Cc3ccc(F)cc3Cl)NC(=O)N3CCCC3)CC2)c(N2CCN(C)CC2)n1 [Example 66]
25 | > 1000 nM | 33% | > 1000 nM | Cc1ccc(C2CCN(C(=O)[C@@H](Cc3ccc(F)cc3F)NC(=O)N3CCCC3)CC2)c(N2CCN(C)CC2)n1 [Example 67]
26 | ≤ 100 nM | -2% |  | CC[C@H](COc1cccnc1C1CCN(C(=O)[C@@H](Cc2ccc(C)cc2C)NC(=O)N2CCCC2)CC1)N1CCCC1 [Example 70]
27 | ≤ 100 nM | -4% |  | CC[C@H](COc1cc(Cl)cnc1C1CCN(C(=O)[C@@H](Cc2ccc(C)cc2C)NC(=O)N2CCCC2)CC1)N1CCCC1 [Example 71]
28 | ≤ 100 nM | -15% |  | CC[C@H](COc1cc(Cl)cnc1C1CCN(C(=O)[C@@H](Cc2ccc(C)cc2C)NC(=O)N2CCCC2)CC1)N(C)C [Example 73]
29 | ≤ 100 nM | -5% |  | CC[C@H](COc1cc(Cl)cnc1C1CCN(C(=O)[C@@H](Cc2ccc(C)cc2C)NC(=O)N2CC(O)C2)CC1)N(C)C [Example 74]
30 | ≤ 100 nM | -1% |  | CC[C@H](COc1cc(F)cnc1C1CCN(C(=O)[C@@H](Cc2ccc(Cl)cc2Cl)NC(=O)N2CC(O)C2)CC1)N(C)C [Example 75]
31 | ≤ 100 nM | 0% |  | CC[C@H](COc1cccnc1C1CCN(C(=O)[C@@H](Cc2ccc(Cl)cc2Cl)NC(=O)N2CCC2)CC1)N1CCCC1 [Example 76]
32 | ≤ 100 nM | 0% |  | CC[C@H](COc1cccnc1C1CCN(C(=O)[C@@H](Cc2ccc(Cl)cc2Cl)NC(=O)N(C)C)CC1)N1CCCC1 [Example 77]
33 | ≤ 100 nM | 0% |  | CC[C@H](COc1cccnc1C1CCN(C(=O)[C@@H](Cc2ccc(Cl)cc2Cl)NC(=O)N(CC)CC)CC1)N1CCCC1 [Example 78]
34 | ≤ 100 nM | 0% |  | CC[C@H](COc1cccnc1C1CCN(C(=O)[C@@H](Cc2ccc(Cl)cc2Cl)NC(=O)N(C)CC)CC1)N1CCCC1 [Example 79]
35 | ≤ 100 nM | 0% |  | CC[C@H](COc1cccnc1C1CCN(C(=O)[C@@H](Cc2ccc(Cl)cc2Cl)NC(=O)N2CC[C@@H](O)C2)CC1)N1CCCC1 [Example 80]
36 | ≤ 100 nM | 0% |  | CC[C@H](COc1cccnc1C1CCN(C(=O)[C@@H](Cc2ccc(Cl)cc2Cl)NC(=O)N2CC[C@@H](F)C2)CC1)N1CCCC1 [Example 81]
37 | ≤ 100 nM | 0% |  | CC[C@H](COc1cccnc1C1CCN(C(=O)[C@@H](Cc2ccc(Cl)cc2Cl)NC(=O)N2CCC(F)CC2)CC1)N1CCCC1 [Example 82]
38 | ≤ 100 nM | 0% |  | CC[C@H](COc1cccnc1C1CCN(C(=O)[C@@H](Cc2ccc(Cl)cc2Cl)NC(=O)N2CCC(F)(F)CC2)CC1)N1CCCC1 [Example 83]
39 | ≤ 100 nM | 0% |  | CC[C@H](COc1cccnc1C1CCN(C(=O)[C@@H](Cc2ccc(Cl)cc2Cl)NC(=O)N2CC(O)C2)CC1)N1CCCC1 [Example 84]
